These results are taken from article PMC10578352, “Identification of a Protein Arginine Methyltransferase 7 (PRMT7)/Protein Arginine Methyltransferase 9 (PRMT9) Inhibitor” (Journal of Medicinal Chemistry, 2023).

By IC50 is commonly meant the concentration that gives 50% inhibition.

One test has as its target T1, human recombinant PRMT9 (Homo sapiens, UniProt Q6P2P2).
T1 construct: human recombinant PRMT9 (2–845; N-terminal FLAG-tag, C-terminal His6-tag); FLAG (N); His6 (C); purchased BPS BioScience 79124
T1 sequence (Q6P2P2 2-845): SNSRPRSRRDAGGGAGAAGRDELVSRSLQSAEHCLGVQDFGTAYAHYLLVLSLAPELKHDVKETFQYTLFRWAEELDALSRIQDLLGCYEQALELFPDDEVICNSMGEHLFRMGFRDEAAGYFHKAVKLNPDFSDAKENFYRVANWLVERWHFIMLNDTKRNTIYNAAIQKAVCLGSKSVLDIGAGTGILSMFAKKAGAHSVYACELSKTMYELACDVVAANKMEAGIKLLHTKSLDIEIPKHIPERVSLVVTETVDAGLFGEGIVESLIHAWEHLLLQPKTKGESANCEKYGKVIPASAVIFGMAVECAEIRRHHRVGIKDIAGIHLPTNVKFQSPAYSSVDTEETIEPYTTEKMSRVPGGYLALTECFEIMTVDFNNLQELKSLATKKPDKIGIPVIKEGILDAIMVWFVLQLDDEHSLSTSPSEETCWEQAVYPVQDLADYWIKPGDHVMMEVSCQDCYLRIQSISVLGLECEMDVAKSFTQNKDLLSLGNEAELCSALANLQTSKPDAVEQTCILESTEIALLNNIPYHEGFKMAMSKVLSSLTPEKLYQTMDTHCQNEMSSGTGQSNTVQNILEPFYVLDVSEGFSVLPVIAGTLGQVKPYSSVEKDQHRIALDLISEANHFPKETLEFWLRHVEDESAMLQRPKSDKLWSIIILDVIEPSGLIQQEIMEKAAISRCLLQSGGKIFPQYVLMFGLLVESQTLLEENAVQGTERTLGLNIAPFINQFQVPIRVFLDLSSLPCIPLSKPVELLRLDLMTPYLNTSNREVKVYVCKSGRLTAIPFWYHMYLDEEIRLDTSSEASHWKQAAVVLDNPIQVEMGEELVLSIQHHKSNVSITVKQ
Nature of the test: AlphaLISA PRMT9 activity assay (modified BPS kit, biotinylated SF3B2 peptide). As to conditions: PRMT9 0.105 μM, biotinylated SF3B2 (500–519) peptide 100 nM, SAM 25 μM. The format is biochemical. Here is the method:
Accordingly, all the enzymatic inhibition data were obtained by performing the assays in these optimized conditions.
The reaction was incubated for 60 min. Afterward, in each well, 5 μL of a 1:100 dilution of Primary antibody 28 (BPS BioScience, #52140Z3) in Detection buffer (BPS BioScience) and 5 μL of anti-Rabbit acceptor beads (PerkinElmer, #AL104C) were added to obtain a final concentration of 20 μg/mL.
For each incubation step, the OptiPlate was sealed with a protective foil to prevent evaporation and contamination. Donor and Acceptor beads were added to the mixture in subdued light.
The 100% activity (positive control) was reached using vehicle (DMSO), while 0% activity (negative control) was obtained without the protein. Data were analyzed by using Excel and Prism software. Values obtained for each compound are mean ± SD determined for three separate experiments.

For the next test, the target named is T2, CePRMT7 (Caenorhabditis elegans, UniProt Q9XW42).
T2 construct: made in house; host or cells: E. coli
Nature of the test: Radioisotope-based assay (SDS-PAGE, fluorography, densitometry), CePRMT7. The format is biochemical. The note with it: substrate HsH2B, 15 °C, read-out: % CePRMT7 residual activity. On the procedure:
Based on these outcomes, we resolved to explore the effect on the capability to inhibit PRMT9 enzymatic activity of further reduction of the distance between the pharmacophoric moieties. […] After the experiment was repeated with 100, 250, and 500 μM concentrations of each inhibitor, half inhibition was observed only at a concentration of roughly 250 μM (Figure 4d).
[…]. The experiments were performed as reported in the Experimental procedures section. GST-HsPRMT9 (a) and GST-HsPRMT7 (b) were incubated with human GST-SF3B2 (401–550) peptide or recombinant HsH2B, respectively (1 μg of enzyme, 5 μg of substrate), 0.14 μM [^3H]SAM, and the indicated concentrations of tested compounds at the corresponding optimal reaction temperature (37 °C for HsPRMT9, 15 °C for HsPRMT7). C. elegans GST-tagged enzymes PRMT9 (c) and PRMT7 (d) were incubated with GST-CeSFTB-2 (99–248) fragment or recombinant HsH2B, respectively (1 μg of enzyme, 5 μg of substrate), 0.14 μM [^3H]SAM, and the indicated concentrations of tested compounds at the corresponding optimal reaction temperature (25 °C for CePRMT9, 15 °C for CePRMT7). After SDS-PAGE, the gels were treated as previously described[48] and densitometry analysis was done using ImageJ software, and data was plotted as normalized activity to the no inhibitor controls.
Human PRMT9, C. elegans PRMT9, human PRMT7, and C. elegans PRMT7 plasmids were sequenced, expressed in E. coli as GST-fusion proteins, and purified as previously described.[48] Substrates were also sequenced and purified as described [human GST-SF3B2 (401–550);[13]C. elegans SFTB-2;[48] human histone H2B (New England Biolabs, M2505S)]. Xenopus laevis histone H2B was expressed in E. coli and purified similarly to what was previously reported by Luger et al.[72]
Reactions consisting of approximately 1 μg of enzyme (human or C. elegans GST-tagged enzymes PRMT9 and PRMT7), reacted with approximately 5 μg of substrate [for human PRMT9, human GST-SF3B2 401–550 fragment; C. elegans PRMT9 with C. elegans GST-SFTB-2 (99–248) fragment, or recombinant human histone H2B from New England Biolabs (M2505S)], were incubated for the indicated time in reaction buffer {50 mM potassium HEPES buffer, 10 mM NaCl, 1 mM dithiothreitol (DTT), pH 8.0 with 0.7 μM S-adenosyl-L-[methyl-^3H]methionine (^3H-AdoMet, PerkinElmer Life Sciences, 82.7 Ci/mmol, 0.55 mCi/mL in 10 mM H2SO4/EtOH [9:1 (v/v)])} in a final reaction volume of 60 μL. Each reaction was incubated at the corresponding optimal reaction temperature (37 °C for human PRMT9, 25 °C for C. elegans PRMT9, and 15 °C for C. elegans and human PRMT7 enzymes. MTA was dissolved in water, and a wavelength scan was taken to determine the final concentration using the extinction coefficient. The final concentrations used are indicated in the figure legends. […]. EML734, EML736, and EML709 were also dissolved in DMSO, and further dilutions were made in DMSO for the working stocks. For controls, no inhibitor reactions were created by the addition of the respective solvent (water for MTA and DMSO for EPZ015666 and EML inhibitors).
After the reaction incubations with the various concentrations of inhibitors, the reactions were quenched by adding 0.2 volume of 5× SDS sample loading buffer, and subsequently, the reactions were run on a 12.6% polyacrylamide Tris gel. To collect the radioactive signal, the gels were then treated in the same way as previously described.[48]
After various exposures were collected to ensure linear detection, densitometry analysis was done using ImageJ software, and data were plotted as normalized activity to the no inhibitor controls.

T2 sequence (Q9XW42 whole entry): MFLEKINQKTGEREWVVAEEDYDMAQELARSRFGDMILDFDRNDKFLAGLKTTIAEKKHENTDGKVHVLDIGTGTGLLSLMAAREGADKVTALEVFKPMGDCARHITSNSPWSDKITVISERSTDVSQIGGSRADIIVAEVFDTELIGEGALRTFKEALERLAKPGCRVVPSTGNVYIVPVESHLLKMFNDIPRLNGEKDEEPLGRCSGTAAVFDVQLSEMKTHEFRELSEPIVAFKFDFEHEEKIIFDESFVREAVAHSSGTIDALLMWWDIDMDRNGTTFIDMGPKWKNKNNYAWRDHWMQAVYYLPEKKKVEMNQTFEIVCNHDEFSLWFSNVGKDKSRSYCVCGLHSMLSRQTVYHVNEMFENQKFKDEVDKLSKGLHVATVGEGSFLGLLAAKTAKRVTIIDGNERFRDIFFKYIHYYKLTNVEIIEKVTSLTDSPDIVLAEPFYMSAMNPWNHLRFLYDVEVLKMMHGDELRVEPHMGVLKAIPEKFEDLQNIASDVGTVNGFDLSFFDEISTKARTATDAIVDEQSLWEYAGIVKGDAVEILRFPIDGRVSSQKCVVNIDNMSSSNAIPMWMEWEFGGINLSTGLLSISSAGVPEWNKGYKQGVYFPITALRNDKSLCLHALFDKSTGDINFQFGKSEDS

As to `COC(=O)c1cc(O)c2cc(NC(=O)NCCCNC(=N)NC[C@H]3O[C@@H](n4cnc5c(N)ncnc54)[C@H](O)[C@@H]3O)ccc2c1` [1a], the IC50 on human recombinant PRMT9 amounted to 890 nM. Also, at CePRMT7, the remaining activity at 100 µM worked out at 19.6%, the remaining activity at 250 µM came to 12.5% and the remaining activity at 500 µM amounted to 0.92%.
In the case of `COC(=O)c1cc(O)c2cc(NC(=O)NCCCCNC(=N)NC[C@H]3O[C@@H](n4cnc5c(N)ncnc54)[C@H](O)[C@@H]3O)ccc2c1` [1b], on human recombinant PRMT9, the IC50 turned out to be 1320 nM. On CePRMT7, the remaining activity at 100 µM is 34.8%, the remaining activity at 250 µM is 8.62% and the remaining activity at 500 µM was 5.19%.
Taken in the same sequence, the figures for `COC(=O)c1cc(O)c2cc(NC(=O)NCCCCCNC(=N)NC[C@H]3O[C@@H](n4cnc5c(N)ncnc54)[C@H](O)[C@@H]3O)ccc2c1` [1c] were 5800 nM, 26.1%, 6.92% and 2.32%.
With `COC(=O)c1cc(O)c2cc(NC(=O)NCCCNC(=N)NC[C@H]3O[C@@H](n4cnc5c(N)ncnc54)[C@H](O)[C@@H]3O)cc(C(F)(F)F)c2c1` [1j, Methyl 6-(3-(3-(3-(((2R,3S,4R,5R)-5-(6-Amino-9H-purin-9-yl)-3,4-dihydroxytetrahydrofuran-2-yl)methyl)guanidino)propyl)ureido)-4-hydroxy-8-(trifluoromethyl)-2-naphthoate], the IC50 on human recombinant PRMT9 is 200 nM.
